Experimental data from patent US20220110902A1, “Methods of treating amyloid-beta peptide diseases” (Ecole Polytechnique Federale de Lausanne, priority 2016, published 2022).
“Also recorded” adds a separate entry of the source.

Legend:
GMC101 worms [1] = assay: Development and growth of GMC101 worms; assay type: in vivo, C. elegans; conditions: GMC101, eggs to day 1 of adulthood; dox 15 μg/mL
Protocol: Development: 50 adult worms per condition were transferred on NGM agar plates (10 worms per plate) and allowed to lay eggs for 3 h. Then they were removed and the number of eggs per plate was counted. 72 h later, the number of L1-L3 larvae, L4 and adult worms was counted. The experiment was done twice with five individual plates.

[2] = system: SH-SY5Y neuroblastoma cell line expressing the APP Swedish K670N/M671L double mutation (APPSwe); assay: Immunostaining of intracellular Aβ deposits in APPSwe SH-SY5Y cells; assay type: cell-based, human
Protocol: The SH-SY5Y neuroblastoma cell line expressing the APP Swedish K670N/M671L double mutation (APPSwe) was a kind gift of Prof. Cedazo-Minguez (Karolinska Institute, Sweden). Cells were grown in DMEM/F-12, supplemented with 10% fetal bovine serum (FBS, Gibco), GlutaMAX (100×, Gibco) and penicillin/streptomycin (1×, Gibco). Cells were selected in 4 μg/mL Geneticin® Selective Antibiotic (G418 Sulfate, Sigma) and grown for three generations before experiments with cells plated and passaged at 4×10^3 cells/ml and 60% confluence, respectively. Cells were cultured at 37° C. under a 5% CO2 atmosphere and tested for mycoplasma using Mycoprobe (#CUL001B, R&D systems) following the manufacturer's instructions. Cells were treated with 10 μg/mL dox, NR 1 or 3 mM, ISRIB 0.5 μM (Sigma), as indicated for 24 hours before cell harvesting or fixation. For the immunostaining, cells were fixed with 1× Formal-Fixx (Thermo Scientific) for 15 min. After 15 min permeabilization with 0.1% Triton X-100, cells were blocked in PBS supplemented with 5% fetal bovine serum for 1 hour and immunostained overnight, at 4° C., with the anti-β-Amyloid 1-42 (1:100, Millipore AB5078P). The secondary antibody was coupled to the Alexa-488 fluorochrome (Thermo Scientific), and nuclei were stained with DAPI (Invitrogen, D1306). After washing in PBS, cell slides were mounted with Dako mounting medium (Dako, S3023) and examined with a Zeiss LSM 700 confocal microscope (Carl Zeiss MicroImaging) equipped with a Plan-Apochromat 40×/1.3 NA oil immersion objective lens using a 488 nm laser. Laser power was set at the lowest intensity allowing clear visualization of the signal. Imaging settings were maintained with the same parameters for comparison between different experimental conditions.
The SH-SY5Y neuroblastoma cell line expresses the APP Swedish K670N/M671L double mutation (APPSwe) (Zheng et al., 2011) and accumulates intracellular Aβ amyloid aggregates. Cells were grown in DMEM/F-12, supplemented with 10% fetal bovine serum (FBS, Gibco), GlutaMAX (100×, Gibco) and penicillin/streptomycin (1×, Gibco). Cells were selected in 4 μg/mL Geneticin® Selective Antibiotic (G418 Sulfate, Sigma) and grown for three generations before experiments with cells plated and passaged at 4×10{right arrow over ( )}3 cells/ml and 60% confluence, respectively. Cells were cultured at 37° C. under a 5% CO2 atmosphere and tested for mycoplasma using Mycoprobe (#CUL001B, R&D systems), following the manufacturer's instructions. Myriocin was dissolved in DMSO.
Cells were treated with 10 uM Myriocin and Fumonisin B1 for 24 hours before harvesting or fixation (FIG. 3A). For immunostaining, cells were fixed with 1× Formal-Fixx (Thermo Scientific) for 15 min. […]

SH-SY5Y(APPSwe) cells = assay: Western-blot and transcript analysis in SH-SY5Y(APPSwe) cells; assay type: cell-based, human; conditions: ISRIB 0.5 μM with dox 10 μg/mL, 24 h
Protocol: Human: Total RNA was extracted using guanidine-isothiocyanate lysis (PureLink, Ambion, Waltham, Mass.) from cortex samples, and RNA integrity and concentration was verified using Bioanalysis (Agilent, Santa Clara, Calif.). Samples were randomized based on diagnostic group and assayed in triplicate on a real-time PCR cycler (ABI 7500, Applied Biosystems, Foster City) in 96-well optical plates. qPCR was performed using Taqman hydrolysis probe primer sets (Applied Biosystems) specific for the following human transcripts: HSPA9, HSPD1, YMEIL1, DNM1L, BECN1, SQSTM1, PARK2, COX5A, CYC1. A primer set specific for human GAPDH was used as a control housekeeping transcript. For the APPSwe-expressing SH-SY5Y cell line, total RNA was extracted […] using TriPure RNA isolation reagent, and expression of selected transcripts was analyzed using the LightCycler480 system (Roche) and LightCycler® 480 SYBR Green I Master reagent (Roche). The GAPDH gene was used as housekeeping reference. The ddCT method was employed to determine relative levels of each amplicon. […] The SH-SY5Y neuroblastoma cell line expressing the APP Swedish K670N/M671L double mutation (APPSwe) was a kind gift of Prof. Cedazo-Minguez (Karolinska Institute, Sweden). Cells were grown in DMEM/F-12, supplemented with 10% fetal bovine serum (FBS, Gibco), GlutaMAX (100×, Gibco) and penicillin/streptomycin (1×, Gibco). Cells were selected in 4 μg/mL Geneticin® Selective Antibiotic (G418 Sulfate, Sigma) and grown for three generations before experiments with cells plated and passaged at 4×10^3 cells/ml and 60% confluence, respectively. Cells were cultured at 37° C. under a 5% CO2 atmosphere and tested for mycoplasma using Mycoprobe (#CUL001B, R&D systems) following the manufacturer's instructions. Cells were treated with 10 μg/mL dox, NR 1 or 3 mM, ISRIB 0.5 μM (Sigma), as indicated for 24 hours before cell harvesting or fixation. For the immunostaining, cells were fixed with 1× Formal-Fixx (Thermo Scientific) for 15 min. […]

C. elegans = conditions: cited from earlier work
[3] = system: mouse models of age-related decline of muscle function; conditions: mouse models of age-related decline of muscle function, and young rats; cited from earlier work
GMC101 worms [4] = assay: Western-blot of amyloid aggregation in GMC101 worms; assay type: in vivo, C. elegans; conditions: GMC101, 24 h after shift to 25° C.; UA 20 uM and 50 uM
Protocol: C. elegans: Worms were lysed by sonication with RIPA buffer containing protease and phosphatase inhibitors (Roche), and analyzed by SDS-PAGE and western blot. The concentration of extracted protein was determined by using the Bio-Rad Protein Assay. Proteins were detected using the following antibodies: anti-β-actin (Sigma), anti-tubulin (Santa Cruz), atp-5, ucr-1 (Oxphos cocktail, Abcam), anti-β-Amyloid, 1-16 (6E10) (BioLegend). In addition to the housekeeping proteins, loading was monitored by Ponceau Red to ensure a homogeneous loading. Pixel intensity was quantified by using ImageJ software. Each immunoblot experiment was repeated at least twice using 3 biological replicates each containing approximately 1000 worms.
(§1) During the assays, animals were exposed to Myriocin (dissolved in DMSO) from the egg stage on plates seeded with live HT115 E. coli bacteria. Control plates seeded with the same bacteria were prepared with the corresponding concentrations of DMSO. The day of the experiment (day 1 of adulthood, 3 days after hatching), the GMC101 population was shifted to 25° C. in order to induce the amyloid deposition in the body wall muscle. ˜1000 worms were used for western blotting assays.
Worms were lysed by sonication with RIPA buffer containing protease and phosphatase inhibitors (Roche), and analyzed by western blot. The concentration of extracted protein was determined by the Bio-Rad Protein Assay. Proteins were detected using the following antibodies: anti-β-actin (Sigma) and anti-β-Amyloid (BioLegend). In addition to the housekeeping proteins, loading was monitored by Ponceau Red to ensure a homogeneous loading. The immunoblot experiment employed 3 biological replicates, each containing approximately 1000 worms.
Worms were lysed by sonication with RIPA buffer containing protease and phosphatase inhibitors (Roche), and analyzed by western blot. The concentration of extracted proteins was determined by the Bio-Rad Protein Assay. Proteins were detected using the following antibodies: anti-β-actin (Sigma) and anti-β-Amyloid (BioLegend). In addition to the housekeeping proteins, loading was monitored by Ponceau Red to ensure a homogeneous loading. The immunoblot experiment employed 3 biologicals replicates, each containing approximately 1000 worms.
The GMC101 worms were recovered 24 h after being shifted at 25° C. The population was treated with UA at two different concentrations, ie 20 uM and 50 uM.

GMC101 worms [5] = assay: Worm phenotypic assays in GMC101: mobility, paralysis and death score; assay type: in vivo, C. elegans; conditions: GMC101, period of 4 days; UA 20 uM and 50 uM
Protocol: Doxycycline was obtained from Sigma-Aldrich and dissolved in water. For experiments, a final concentration of 15 μg/mL was used. Olaparib (AZD2281) was dissolved in DMSO to experimental concentrations of 300 nM. Nicotinamide Riboside triflate (NR) was custom synthesized by Novalix (www.novalix-pharma.com/) and dissolved in water, and used at a final concentration of 1 mM. Compounds were added just before pouring the plates. For phenotyping experiments, parental F0 L4 worms were allowed to reach adulthood and lay eggs on the treatment plates. The deriving F1 worms were therefore exposed to compounds during the full life from eggs until death. For RNA analysis experiments, synchronized L1 worms were exposed to the compounds until harvest. To ensure a permanent exposure to the compound, plates were changed twice a week.
Mobility: C. elegans movement analysis was performed as described, starting from day 1 of adulthood, using the Movement Tracker software. The experiments were repeated at least twice.
Paralysis and death score: 5 L4 worms per condition were allowed to reach adulthood and lay eggs on the treatment plates. 45 to 60 deriving F1 worms per condition were manually scored for paralysis after poking, as already described. Worms that were unable to respond to any, repeated stimulation, were scored as dead. Results are representative of the data obtained in at least three independent experiments.
as §1
C. elegans movement analysis was performed as described (Mouchiroud et al., 2016), using the Movement Tracker software. ˜50 adult worms were used per condition for movement assays.
To score for paralysis and death, 50 worms per condition were manually scored after poking as described (McCool et al., 2012; Florez-McClure et al., 2007). Worms that were unable to respond to repeated stimulation were scored as dead.
During the assays, animals were exposed to the compound UA from egg stage on plates seeded with live HT115 E. coli bacteria. Control plates seeded with the same bacteria were prepared with the corresponding concentrations of DMSO (0.1%). The day of the experiment (day 1 of adulthood, 3 days after hatching), the GMC101 population was shifted to 25° C. in order to induce the amyloid deposition in the body wall muscle. ˜50 adult worms were used per conditions.
C. elegans movement analysis was performed as described in (Mouchiroud et al., 2016), using the Movement Tracker software within a period of 4 days.

C[C@H]1c2cccc(O)c2C(=O)C2=C(O)[C@]3(O)C(=O)C(C(N)=O)=C(O)[C@@H](N(C)C)[C@@H]3[C@@H](O)[C@@H]21 [dox, doxycycline]
development and growth delay (GMC101 worms [1]): without causing major development and growth delays

CCCC[C@H](C)[C@@H](OC(=O)C[C@H](CC(=O)O)C(=O)O)[C@@H](C[C@H](C)C[C@@H](O)CCCC[C@@H](O)C[C@H](O)[C@H](C)N)OC(=O)C[C@H](CC(=O)O)C(=O)O [Fumonisin B1, (2S,2'S)-2,2′-{[(5S,6R,7R,9R,11S,16R,18S,19S)-19-Amino-11,16,18-trihydroxy-5,9-dimethylicosane-6,7-diyl]bis[oxy(2-oxoethane-2,1-diyl)]}disuccinic acid]
intracellular Aβ deposits ([2]; 10 uM, 24 hours): significantly reduced; also recorded: markedly reduced

O=C(COc1ccc(Cl)cc1)NC1CCC(NC(=O)COc2ccc(Cl)cc2)CC1 (centres unmarked) [ISRIB, reference compound]
dox-mediated induction of ATF4 target genes CHOP and CHAC1 (SH-SY5Y(APPSwe) cells): hampered the dox-mediated induction | amyloid clearance by dox after ISRIB pretreatment ([2]; ISRIB 0.5 μM with dox 10 μg/mL, 24 h): prevented amyloid clearance by dox

O=c1oc2cc(O)ccc2c2ccc(O)cc12 [UA, 3,8-Dihydroxyurolithin]
mitochondrial respiratory capacity (C. elegans; C. elegans during aging): maintaining mitochondrial respiratory capacity | accumulation of dysfunctional mitochondria with age (C. elegans; C. elegans): prevent the accumulation of dysfunctional mitochondria with age | activity during aging (mobility and pharyngeal pumping) (C. elegans; C. elegans): maintained normal activity during aging | lifespan (C. elegans; C. elegans): extended lifespan | exercise capacity [3]: significantly improved exercise capacity | accumulation of amyloid-β aggregates (GMC101 worms [4]): dose-dependently reduced; also recorded: dose-dependent reduction | spontaneous movement (mobility) (GMC101 worms [5]): dose-dependently increased; also recorded: dose-dependent increase
